Experimental data: patent publication US11981660B2, “Neurite outgrowth promoters and uses thereof” (UNIVERSITY OF MIAMI, priority 2018, dated 2024)

System: hippocampal neurons
Experiment: Neurite outgrowth assay in cultured E18 rat hippocampal neurons (48 h, βIII-tubulin staining, Cellomics ArrayScan)
Assay type: cell-based
Conditions: Hippocampal neuron; for activity at 0.015625 µg/mL: 15.625 ng/mL compound; for activity at 0.015625 µg/mL / activity at 0.03125 µg/mL / activity at 0.0625 µg/mL / activity at 0.125 µg/mL / activity at 0.25 µg/mL / activity at 0.5 µg/mL: 48 hours, read-out: neurite growth length (% NTL); for activity at 0.03125 µg/mL: 31.25 ng/mL compound; for activity at 0.0625 µg/mL: 62.5 ng/mL compound; for activity at 0.125 µg/mL: 125 ng/mL compound; for activity at 0.25 µg/mL: 250 ng/mL compound; for activity at 0.5 µg/mL: 500 ng/mL compound; for EC200 / EC300: 48 h, estimated using linear interpolation; for EC200: 200% effective dose, read-out: ED200%; for EC300: 300% effective dose, read-out: ED300%
Description: Pre-coating culture plates: On the day before the experiment, 96-well plates were pre-coated by plating 50 μL of poly-D-lysine solution (PDL, 0.5 mg/mL) in each well. The next morning, the plates were washed four or five times with HBSS or PBS (150 μL/rinse), then left in buffer until cell plating
Preparing the cells: A timed pregnant rat carrying E18 embryos was euthanized using an IACUC approved method. In a laminar flow hood, the embryos were removed and placed in a petri dish containing Hank's Balanced Salt Solution (HBSS) with 20 mM HEPES, pH 7.3. Pup brains were dissected (see Meberg et al., Methods cell Biol 71:111-127 (2003)) and hippocampi were collected in 15 mL a conical tube containing Hibernate E with SM1 (2% v/v).
Dissociation media was prepared by combining 4.5 mL of Hibernate E (without SM1) with 0.5 mL of trypsin and 100 μl of DNAse solution. The medium over the hippocampi was carefully removed and replaced with dissociation solution, then incubated at 37° C. for 15-20 minutes, occasionally swirling the tube.
Using flame polished cotton plugged Pasteur pipettes, the dissociation media was removed, and then 5 mL of Hibernate E containing SM1 were added. The tube was swirled to thoroughly wash the tissue. The tissue was allowed to settle to the bottom of the tube, and the rinse solution was carefully removed. This step was repeated 5 times to dilute out trypsin and DNAse and remove any debris from lysed cells.
The final rinse media was removed from the tube and 1 pipette-full (1-2 mL) of Hibernate E with SM1 was added. Using the flame-polished Pasteur pipette (pre-wetted with rinse media), the tube was triturated until all cells had dissociated and no visible chunks of tissue remained. Fewer than ten triturations were typically performed. The volume was adjusted to 8-12 mL using Hibernate E containing SM1, the well was mixed and cell concentration was determined.
Plating: The cells were diluted in culture media (NbActiv4 Cell-culture media) to a final concentration of 10,000 cells/mL. The HBSS was aspirated from PDL coated plates, and 150 μL of cell solution was loaded in the middle 48 wells at 1500 cells per well. Water was loaded in the outer wells to decrease evaporation from edge wells. Cells were allowed to adhere for 2 hours in tissue culture incubator prior to treatment.
Treatment: Compounds were diluted to various concentrations to provide 6 dose response concentrations of 500 ng/mL, 250 ng/mL, 125 ng/mL, 62.5 ng/mL, 31.25 ng/mL, and 15.625 ng/mL. The plates were cultured for 48 hours, exposed to the compound at the various dose response concentrations.
Fixing the cultures: The culture medium was removed from the plates and immediately replaced with 100-200 μL of warm (37° C.) 4% paraformaldehyde (“PFA”) solution in phosphate-buffered saline (“PBS”). The cells were fixed for 15-20 minutes at room temperature, and then rinsed with PBS (200 μl/well×3).
Staining and imaging: The PBS was removed and replaced with 100 μL of blocking/permeabilization buffer (PBS, 0.2% fish gelatin, 0.03% Triton X-100, 0.02% NaN3), then incubated overnight at 4° C. To this was added 100 μL of primary antibody solution (mouse anti-Beta III tubulin in blocking buffer) and incubate overnight at 4° C. The wells were rinsed with PBS (200 μl×3), which was then removed and replaced with 100 μL of secondary antibody solution (Goat anti-mouse Alexa 488, 10 μg/ml Hoechst 33342, 0.2% fish gelatin, 0.02% azide, in PBS). The plate was shaken gently on a rotating shaker for 2 hours, then rinsed with PBS (200 μl×5).
The plate was imaged using a Cellomics ArrayScan VTI in 2 different channels for nuclear staining (Hoechst) and cell body/neurite staining (βIII-tubulin). Typically, nine fields per well were imaged with a 5× objective and automatically traced by the Neuronal Profiling Bioapplication. To get reproducible results, at least 200-300 valid neurons were measured per condition. […]

Row | SMILES | activity at 0.015625 µg/mL [%] | activity at 0.03125 µg/mL [%] | activity at 0.0625 µg/mL [%] | activity at 0.125 µg/mL [%] | activity at 0.25 µg/mL [%] | activity at 0.5 µg/mL [%] | EC200 [µM] | EC300 [µM]
1 | CC(C)CCCN1C(=S)N(CCCC[C@H]2CNC(C3CCCC3)=N2)C[C@H]1c1ccccc1 [Compound A20, (R)-1-(4-((S)-2-cyclopentyl-4,5-dihydro-1H-imidazol-4-yl)butyl)-3-(4-methylpentyl)-4-phenylimidazolidine-2-thione] | 174 | 234 | 280 | 249 | 278 | 273 |  | 
2 | CC(C)CCCN1C(=S)N(CCCC[C@H]2CNC(C3CCCC3)=N2)C[C@H]1C [Compound A2, (R)-1-(4-((S)-2-cyclopentyl-4,5-dihydro-1H-imidazol-4-yl)butyl)-4-methyl-3-(4-methylpentyl)imidazolidine-2-thione] | 114 | 138 | 176 | 214 | 265 | 324 |  | 
3 | C[C@@H]1CN(CCCC[C@H]2CNC(CCCc3ccccc3)=N2)C(=S)N1CCC1CCCCC1 [Compound A6, (R)-3-(2-cyclohexylethyl)-4-methyl-1-(4-((S)-2-(3-phenylpropyl)-4,5-dihydro-1H-imidazol-4-yl)butyl)imidazolidine-2-thione] | 101 | 122 | 122 | 210 | 247 | 243 |  | 
4 | CC(C)C[C@@H]1CN(CCCC[C@H]2CNC(CCCc3ccccc3)=N2)C(=S)N1CCC1CCCCC1 [Compound A15, (R)-3-(2-cyclohexylethyl)-4-isobutyl-1-(4-((S)-2-(3-phenylpropyl)-4,5-dihydro-1H-imidazol-4-yl)butyl)imidazolidine-2-thione] | 114 | 135 | 199 | 201 | 267 | 247 |  | 
5 | CCC(C)C1=N[C@@H](CCCCN2C[C@@H](c3ccccc3)N(CCCC(C)C)C2=S)CN1 (stereo partly drawn) [Compound A19, (4R)-1-(4-((4S)-2-(sec-butyl)-4,5-dihydro-1H-imidazol-4-yl)butyl)-3-(4-methylpentyl)-4-phenylimidazolidine-2-thione] | 121 | 179 | 253 | 264 | 266 | 276 |  | 
6 | CC(C)C[C@@H]1CN(CCCC[C@H]2CNC(C3CCCC3)=N2)C(=S)N1CC1CCC(C)CC1 (stereo partly drawn) [Compound A17, (R)-1-(4-((S)-2-cyclopentyl-4,5-dihydro-1H-imidazol-4-yl)butyl)-4-isobutyl-3-((4-methylcyclohexyl)methyl)imidazolidine-2-thione] | 170 | 255 | 254 | 312 | 238 | 263 | 0.004 | 0.025
7 | CCC(C)C1=N[C@@H](CCCCN2C[C@@H](C)N(CCCC(C)C)C2=S)CN1 (mixture of isomers) [Compound A1, (4R)-1-(4-((4S)-2-(sec-butyl)-4,5-dihydro-1H-imidazol-4-yl)butyl)-4-methyl-3-(4-methylpentyl)imidazolidine-2-thione] | 92 | 116 | 155 | 169 | 209 | 323 |  | 
8 | CC(C)CCCN1C(=S)N(CCCC[C@H]2CNC(CCCc3ccccc3)=N2)C[C@H]1CC(C)C [Compound A12, (R)-4-isobutyl-3-(4-methylpentyl)-1-(4-((S)-2-(3-phenylpropyl)-4,5-dihydro-1H-imidazol-4-yl)butyl)imidazolidine-2-thione] | 127 | 145 | 194 | 237 | 266 | 240 |  | 
9 | CC(C)C[C@@H]1CN(CCCC[C@H]2CNC(CCCc3ccccc3)=N2)C(=S)N1CC1CCC(C)CC1 (stereo partly drawn) [Compound A18, (R)-4-isobutyl-3-((4-methylcyclohexyl)methyl)-1-(4-((S)-2-(3-phenylpropyl)-4,5-dihydro-1H-imidazol-4-yl)butyl)imidazolidine-2-thione] | 145 | 197 | 247 | 257 | 240 | 224 | 0.025 | 0.461
10 | CCC(C)C1=N[C@@H](CCCCN2C[C@@H](c3ccccc3)N(CC3CCC(C)CC3)C2=S)CN1 (stereo partly drawn) [Compound A25, (4R)-1-(4-((4S)-2-(sec-butyl)-4,5-dihydro-1H-imidazol-4-yl)butyl)-3-((4-methylcyclohexyl)methyl)-4-phenylimidazolidine-2-thione] | 190 | 256 | 297 | 302 | 256 | 280 | 0.005 | 0.054
11 | S=C1N(CCCC[C@H]2CNC(CCCc3ccccc3)=N2)C[C@@H](c2ccccc2)N1CCC1CCCCC1 [Compound A24, (R)-3-(2-cyclohexylethyl)-4-phenyl-1-(4-((S)-2-(3-phenylpropyl)-4,5-dihydro-1H-imidazol-4-yl)butyl)imidazolidine-2-thione] | 144 | 209 | 252 | 254 | 222 | 184 |  | 
12 | CCC(C)C1=N[C@@H](CCCCN2C[C@@H](CC(C)C)N(CCCC(C)C)C2=S)CN1 (mixture of isomers) [Compound A10, (4R)-1-(4-((4S)-2-(sec-butyl)-4,5-dihydro-1H-imidazol-4-yl)butyl)-4-isobutyl-3-(4-methylpentyl)imidazolidine-2-thione] | 123 | 180 | 223 | 254 | 259 | 240 |  | 
13 | C[C@@H]1CN(CCCC[C@H]2CNC(C3CCCC3)=N2)C(=S)N1CCC1CCCCC1 [Compound A5, (R)-3-(2-cyclohexylethyl)-1-(4-((S)-2-cyclopentyl-4,5-dihydro-1H-imidazol-4-yl)butyl)-4-methylimidazolidine-2-thione] | 105 | 158 | 188 | 251 | 246 | 304 |  | 
14 | S=C1N(CCCC[C@H]2CNC(C3CCCC3)=N2)C[C@@H](c2ccccc2)N1CCC1CCCCC1 [Compound A23, (R)-3-(2-cyclohexylethyl)-1-(4-((S)-2-cyclopentyl-4,5-dihydro-1H-imidazol-4-yl)butyl)-4-phenylimidazolidine-2-thione] | 182 | 252 | 260 | 262 | 232 | 186 | 0.007 | 0.091
